A word on the solubility: it is how much of the substance goes into solution per volume.

In brackets after ≈: the same amount, converted by molar mass.

A short description of series [1]: Solubility of eplerenone in pure solubilizers at room temperature. Format: physicochemical. The conditions noted are these: organic solvent or mixture. The method, then: Preparation of a pharmaceutically acceptable parenteral eplerenone formulation is therefore made difficult by the fact that (a) the solubility of eplerenone in many otherwise parenterally acceptable solubilizers, even in such solubilizers in pure form, is very low, (b) eplerenone dose requirements are relatively high (e.g. about 50 mg/day or more), and (c) the concentration and/or total amount of many parenterally acceptable solubilizers which can be safely parenterally delivered to a subject is relatively low.

Series [2] is described as follows: Storage stability of eplerenone solution formulations SF-2 to SF-5 at different pH, HPLC (Example 2). Format: physicochemical. The following applies: storage at various temperatures and for various time periods. The text has this: The pH of each formulation was adjusted as indicated.
Aliquots of each solution formulation were stored at four different temperatures for a period of 12 weeks. Degradation of eplerenone was monitored via high performance liquid chromatography (HPLC) throughout storage.
Cells in Table 3 which have the symbol “--” therein indicate that no stability data was collected for that particular time and storage temperature.

Take `COC(=O)[C@@H]1CC2=CC(=O)CC[C@]2(C)[C@@]23O[C@@H]2C[C@@]2(C)[C@@H](CC[C@@]24CCC(=O)O4)[C@H]13` [eplerenone, methyl hydrogen 9,11α-epoxy-17α-hydroxy-3-oxopregn-4-ene-7α,21-dicarboxylate, γ-lactone]: the solubility in series [1] (pure glycerin, room temperature) was under 1600 µg/mL; in series [1] (pure polyethylene glycol 400, room temperature), 3300 to 5700 µg/mL (≈ 7.96 to 13.8 mM); in series [1] (pure propylene glycol, room temperature), under 300 µg/mL. Further, the “stability of eplerenone in solution by pH (in words)” value in series [2] is listed as “more stable in a solution maintained at a pH of 5 than at a pH of 2, 7 or 9”.

For the origin of these results see patent US20050080046A1, “Storage stable eplerenone formulation” (priority 2002, published 2005).
